Laboratory results: PMC5218480 (PLoS ONE, 2017)

Tested on: MV-4-11 cells
Test: Gene expression microarray analysis (Affymetrix PrimeView) and GSEA
Type: cell-based, human
Parameters: RFU PODN (11730768_x_at) / Fold change /veh PODN (11730768_x_at) / RFU LINC00158 (11744669_a_at) / Fold change /veh LINC00158 (11744669_a_at) / RFU DUSP10 (11751237_a_at) / Fold change /veh DUSP10 (11751237_a_at) / RFU ID3 (11757404_x_at) / Fold change /veh ID3 (11757404_x_at) / RFU PLEKHG5 (11737974_s_at) / Fold change /veh PLEKHG5 (11737974_s_at) / RFU LRRC4B (11730491_at) / Fold change /veh LRRC4B (11730491_at) / RFU GIMAP4 (11747438_a_at) / Fold change /veh GIMAP4 (11747438_a_at) / RFU KRT8 (11758183_x_at) / Fold change /veh KRT8 (11758183_x_at) / RFU CNN1 (11734310_a_at) / Fold change /veh CNN1 (11734310_a_at) / RFU VPS37D (11726825_at) / Fold change /veh VPS37D (11726825_at) / RFU C10orf10 (11716522_x_at) / Fold change /veh C10orf10 (11716522_x_at) / RFU KIR2DL2 /// KIR2DL4 /// KIR2DL5A /// KIR2DL5B /// KIR2DS1 /// KIR2DS2 /// KIR2DS3 /// KIR2DS4 /// KIR3DL3 /// KIR3DL3 /// KIR3DS1 (11738374_at) / Fold change /veh KIR2DL2 /// KIR2DL4 /// KIR2DL5A /// KIR2DL5B /// KIR2DS1 /// KIR2DS2 /// KIR2DS3 /// KIR2DS4 /// KIR3DL3 /// KIR3DL3 /// KIR3DS1 (11738374_at) / RFU C1QL1 (11718748_at) / Fold change /veh C1QL1 (11718748_at) / RFU TMPRSS4 (11747572_a_at) / Fold change /veh TMPRSS4 (11747572_a_at) / RFU HAMP (11756126_x_at) / Fold change /veh HAMP (11756126_x_at) / RFU RNFT2 (11725882_a_at) / Fold change /veh RNFT2 (11725882_a_at) / RFU NR4A2 (11747474_a_at) / Fold change /veh NR4A2 (11747474_a_at) / RFU ABCC12 (11746883_a_at) / Fold change /veh ABCC12 (11746883_a_at) / RFU TMEM136 (11760407_x_at) / Fold change /veh TMEM136 (11760407_x_at) / RFU CLDN22 /// WWC2 (11732394_at) / Fold change /veh CLDN22 /// WWC2 (11732394_at) / RFU HLA-DPB1 (11760878_x_at) / Fold change /veh HLA-DPB1 (11760878_x_at) / RFU SPINT1 (11716480_a_at) / Fold change /veh SPINT1 (11716480_a_at) / RFU GAP43 (11754022_s_at) / Fold change /veh GAP43 (11754022_s_at) / RFU A4GNT (11735810_at) / Fold change /veh A4GNT (11735810_at) / RFU PRB3 (11715151_x_at) / Fold change /veh PRB3 (11715151_x_at) / RFU TUBB4B (11761932_at) / Fold change /veh TUBB4B (11761932_at) / RFU CAPN14 (11732068_a_at) / Fold change /veh CAPN14 (11732068_a_at) / RFU TMCC2 (11721928_a_at) / Fold change /veh TMCC2 (11721928_a_at) / RFU IRGQ (11745062_a_at) / Fold change /veh IRGQ (11745062_a_at) / RFU FAM174B (11720279_a_at) / Fold change /veh FAM174B (11720279_a_at) / RFU TMPRSS4 (11748680_a_at) / Fold change /veh TMPRSS4 (11748680_a_at) / RFU FAM212B (11763350_a_at) / Fold change /veh FAM212B (11763350_a_at) / RFU PLEKHG5 (11743358_a_at) / Fold change /veh PLEKHG5 (11743358_a_at) / RFU ZSCAN30 (11745921_a_at) / Fold change /veh ZSCAN30 (11745921_a_at) / RFU CMKLR1 (11741424_a_at) / Fold change /veh CMKLR1 (11741424_a_at) / RFU LOC101060620 /// MAPK8IP1 (11723275_at) / Fold change /veh LOC101060620 /// MAPK8IP1 (11723275_at) / RFU SPTSSB (11747773_x_at) / Fold change /veh SPTSSB (11747773_x_at) / RFU PRSS12 (11739890_at) / Fold change /veh PRSS12 (11739890_at) / RFU BIN1 (11741810_x_at) / Fold change /veh BIN1 (11741810_x_at) / RFU WNT11 (11732464_a_at) / Fold change /veh WNT11 (11732464_a_at) / RFU C10orf10 (11716521_a_at) / Fold change /veh C10orf10 (11716521_a_at) / RFU C5orf56 (11738089_at) / Fold change /veh C5orf56 (11738089_at) / RFU CYB561 (11721691_x_at) / Fold change /veh CYB561 (11721691_x_at) / RFU ANKRD19P (11752326_a_at) / Fold change /veh ANKRD19P (11752326_a_at) / RFU OR2T12 /// OR2T33 /// OR2T8 (11738714_s_at) / Fold change /veh OR2T12 /// OR2T33 /// OR2T8 (11738714_s_at) / RFU VCAN (11748164_a_at) / Fold change /veh VCAN (11748164_a_at) / RFU JSRP1 (11732532_at) / Fold change /veh JSRP1 (11732532_at) / RFU KRTAP10-11 (11738290_x_at) / Fold change /veh KRTAP10-11 (11738290_x_at) / RFU MYO3A (11730013_a_at) / Fold change /veh MYO3A (11730013_a_at) / RFU EBF3 (11725865_a_at) / Fold change /veh EBF3 (11725865_a_at) / RFU CAMK2N1 (11719241_x_at) / Fold change /veh CAMK2N1 (11719241_x_at) / RFU C5orf56 (11738088_a_at) / Fold change /veh C5orf56 (11738088_a_at) / RFU OLFML3 (11715873_a_at) / Fold change /veh OLFML3 (11715873_a_at) / RFU LOC100653217 /// NTM (11731650_a_at) / Fold change /veh LOC100653217 /// NTM (11731650_a_at) / RFU MAPK11 (11762145_a_at) / Fold change /veh MAPK11 (11762145_a_at) / RFU FIZ1 (11724087_x_at) / Fold change /veh FIZ1 (11724087_x_at) / RFU OASL (11726364_x_at) / Fold change /veh OASL (11726364_x_at) / RFU SOX15 (11748057_x_at) / Fold change /veh SOX15 (11748057_x_at) / RFU CD79A (11719716_a_at) / Fold change /veh CD79A (11719716_a_at) / RFU HIST1H1D (11736915_at) / Fold change /veh HIST1H1D (11736915_at) / RFU CASKIN2 (11723855_a_at) / Fold change /veh CASKIN2 (11723855_a_at) / RFU LOC730098 (11760151_x_at) / Fold change /veh LOC730098 (11760151_x_at) / RFU OR4N2 (11742367_at) / Fold change /veh OR4N2 (11742367_at) / RFU PRRT2 (11749266_a_at) / Fold change /veh PRRT2 (11749266_a_at) / RFU SNX32 (11753110_a_at) / Fold change /veh SNX32 (11753110_a_at) / RFU CDHR5 (11726645_a_at) / Fold change /veh CDHR5 (11726645_a_at) / RFU RCAN1 (11760418_a_at) / Fold change /veh RCAN1 (11760418_a_at) / RFU FAM167A (11723789_a_at) / Fold change /veh FAM167A (11723789_a_at) / RFU FAM26E (11764081_at) / Fold change /veh FAM26E (11764081_at) / RFU ISYNA1 (11749810_s_at) / Fold change /veh ISYNA1 (11749810_s_at) / RFU ACY1 (11761880_at) / Fold change /veh ACY1 (11761880_at) / RFU 11764098_at / Fold change /veh 11764098_at / RFU SAMD14 (11745864_x_at) / Fold change /veh SAMD14 (11745864_x_at) / RFU NPB (11741838_a_at) / Fold change /veh NPB (11741838_a_at) / RFU TMPRSS6 (11731388_a_at) / Fold change /veh TMPRSS6 (11731388_a_at) / RFU KRTAP10-2 (11738614_at) / Fold change /veh KRTAP10-2 (11738614_at) / RFU ARHGAP8 /// PRR5-ARHGAP8 (11727945_x_at) / Fold change /veh ARHGAP8 /// PRR5-ARHGAP8 (11727945_x_at) / RFU KRTAP5-7 /// NADSYN1 (11734609_at) / Fold change /veh KRTAP5-7 /// NADSYN1 (11734609_at) / RFU RASL12 (11751679_a_at) / Fold change /veh RASL12 (11751679_a_at) / RFU CDKN2B (11736163_a_at) / Fold change /veh CDKN2B (11736163_a_at) / RFU PRF1 (11729649_at) / Fold change /veh PRF1 (11729649_at) / RFU, ZNF638 /// ZNF638-IT1 / Fold change vs veh, ZNF638 /// ZNF638-IT1 / RFU, PANK3 / Fold change vs veh, PANK3 / RFU, SH3YL1 / Fold change vs veh, SH3YL1 / RFU, ZEB2 / Fold change vs veh, ZEB2 / RFU, NRIP1 / Fold change vs veh, NRIP1 / RFU, PTTG1IP / Fold change vs veh, PTTG1IP / RFU, CAPN2 / Fold change vs veh, CAPN2 / RFU, MED14 / Fold change vs veh, MED14 / RFU, SNORA58 / Fold change vs veh, SNORA58 / RFU, C1orf63 / Fold change vs veh, C1orf63 / RFU, LRRFIP1 / Fold change vs veh, LRRFIP1 / RFU, NDUFAF7 / Fold change vs veh, NDUFAF7 / RFU, SLC12A2 / Fold change vs veh, SLC12A2 / RFU, IBTK / Fold change vs veh, IBTK / RFU, ESF1 / Fold change vs veh, ESF1 / Fold change vs veh, TMEM50B / RFU, TAOK1 / Fold change vs veh, TAOK1 / RFU, ACBD3 / Fold change vs veh, ACBD3 / RFU, TMA16 / Fold change vs veh, TMA16 / RFU, RWDD3 / Fold change vs veh, RWDD3 / RFU, BCAT1 / Fold change vs veh, BCAT1 / RFU, EDEM3 / Fold change vs veh, EDEM3 / RFU, TMEM33 / Fold change vs veh, TMEM33 / RFU, WDR75 / Fold change vs veh, WDR75 / RFU, AHCTF1 / Fold change vs veh, AHCTF1 / RFU, TFRC / Fold change vs veh, TFRC / RFU, ZDHHC17 / Fold change vs veh, ZDHHC17 / RFU, NOM1 / Fold change vs veh, NOM1 / RFU, ARL8B / Fold change vs veh, ARL8B / RFU, ZBTB11 / Fold change vs veh, ZBTB11 / RFU, TAMM41 / Fold change vs veh, TAMM41 / RFU, KIAA1704 /// LOC100996395 / Fold change vs veh, KIAA1704 /// LOC100996395 / RFU, ING1 / Fold change vs veh, ING1 / RFU, TRMT61B / Fold change vs veh, TRMT61B / RFU, FUBP3 / Fold change vs veh, FUBP3 / RFU, TP53 / Fold change vs veh, TP53 / RFU, TNKS2 / Fold change vs veh, TNKS2 / RFU, ZFP14 / Fold change vs veh, ZFP14 / RFU, ACTR2 / Fold change vs veh, ACTR2 / RFU, PPP3R1 / Fold change vs veh, PPP3R1 / RFU, PIK3R1 / Fold change vs veh, PIK3R1 / RFU, HNRNPA1 / Fold change vs veh, HNRNPA1 / RFU, RNF170 / Fold change vs veh, RNF170 / RFU, ZNF28 / Fold change vs veh, ZNF28 / RFU, RNGTT / Fold change vs veh, RNGTT / RFU, OGT / Fold change vs veh, OGT / RFU, BRD1 / Fold change vs veh, BRD1 / RFU, MARS / Fold change vs veh, MARS / RFU, ZNF655 / Fold change vs veh, ZNF655 / RFU, FAHD1 / Fold change vs veh, FAHD1 / RFU, BDP1 / Fold change vs veh, BDP1 / RFU, LRRCC1 / Fold change vs veh, LRRCC1 / RFU, ARID1A / Fold change vs veh, ARID1A / RFU, ZNF146 / Fold change vs veh, ZNF146 / RFU, ZNF330 / Fold change vs veh, ZNF330 / RFU, GPN3 / Fold change vs veh, GPN3 / RFU, C9orf123 / Fold change vs veh, C9orf123 / RFU, N4BP2L2 / Fold change vs veh, N4BP2L2 / RFU, ARFIP1 / Fold change vs veh, ARFIP1 / RFU, FAM179B / Fold change vs veh, FAM179B / RFU, BCL10 / Fold change vs veh, BCL10 / RFU, UHRF1BP1L / Fold change vs veh, UHRF1BP1L / RFU, BET1 / Fold change vs veh, BET1 / RFU, CNOT2 / Fold change vs veh, CNOT2 / RFU, ZNF268 / Fold change vs veh, ZNF268 / Fold change vs veh, ZNF507 / RFU, DGCR2 / Fold change vs veh, DGCR2 / RFU, WDSUB1 / Fold change vs veh, WDSUB1 / Fold change vs veh, HSP90B1 /// MIR3652 / RFU, ADSS / Fold change vs veh, ADSS / RFU, GK / Fold change vs veh, GK / RFU, ZNF148 / Fold change vs veh, ZNF148 / RFU, TAF9 / Fold change vs veh, TAF9 / RFU, SLC1A5 / Fold change vs veh, SLC1A5 / RFU, SLMO2 / Fold change vs veh, SLMO2 / RFU, ABCC4 / Fold change vs veh, ABCC4 / RFU, LOC101060439 /// RAP1B / Fold change vs veh, LOC101060439 /// RAP1B / RFU, RFX7 / Fold change vs veh, RFX7 / RFU, GTPBP10 / Fold change vs veh, GTPBP10 / RFU, CNEP1R1 / Fold change vs veh, CNEP1R1 / RFU, BIVM-ERCC5 /// ERCC5 / Fold change vs veh, BIVM-ERCC5 /// ERCC5 / RFU, ILF3 / Fold change vs veh, ILF3 / RFU 11762660_at / Fold change /veh 11762660_at / RFU VCAN (11757783_s_at) / Fold change /veh VCAN (11757783_s_at) / RFU DDX43 (11728927_at) / Fold change /veh DDX43 (11728927_at) / RFU KRT8 (11758188_x_at) / Fold change /veh KRT8 (11758188_x_at) / RFU NKD1 (11759106_at) / Fold change /veh NKD1 (11759106_at) / RFU SRD5A1 (11742802_a_at) / Fold change /veh SRD5A1 (11742802_a_at) / RFU TPSAB1 /// TPSB2 (11721975_s_at) / Fold change /veh TPSAB1 /// TPSB2 (11721975_s_at) / RFU GSTM3 (11746129_a_at) / Fold change /veh GSTM3 (11746129_a_at) / RFU IL23R (11737362_x_at) / Fold change /veh IL23R (11737362_x_at) / RFU TMEM51 (11727254_a_at) / Fold change /veh TMEM51 (11727254_a_at) / RFU PIWIL2 (11732686_x_at) / Fold change /veh PIWIL2 (11732686_x_at) / RFU ORM1 (11744905_x_at) / Fold change /veh ORM1 (11744905_x_at) / RFU CCDC152 (11743942_at) / Fold change /veh CCDC152 (11743942_at) / RFU ECM1 (11717891_a_at) / Fold change /veh ECM1 (11717891_a_at) / RFU IL23R (11748794_a_at) / Fold change /veh IL23R (11748794_a_at) / RFU TNFAIP8L3 (11732012_x_at) / Fold change /veh TNFAIP8L3 (11732012_x_at) / RFU MBOAT4 (11741988_at) / Fold change /veh MBOAT4 (11741988_at) / RFU 11764193_at / Fold change /veh 11764193_at / RFU TMEM53 (11763286_at) / Fold change /veh TMEM53 (11763286_at) / RFU MAGEB2 (11727129_at) / Fold change /veh MAGEB2 (11727129_at) / RFU TMEM200A (11744735_a_at) / Fold change /veh TMEM200A (11744735_a_at) / RFU CCDC152 (11751479_a_at) / Fold change /veh CCDC152 (11751479_a_at) / RFU FAM211A (11726209_a_at) / Fold change /veh FAM211A (11726209_a_at) / RFU RGS16 (11746705_a_at) / Fold change /veh RGS16 (11746705_a_at) / RFU VCAN (11755009_s_at) / Fold change /veh VCAN (11755009_s_at) / RFU RHOB (11743442_s_at) / Fold change /veh RHOB (11743442_s_at) / RFU RGS16 (11720943_a_at) / Fold change /veh RGS16 (11720943_a_at) / RFU RGS16 (11720944_at) / Fold change /veh RGS16 (11720944_at) / RFU, VPS4B / Fold change vs veh, VPS4B / RFU, CREB1 / Fold change vs veh, CREB1 / RFU, DNAJC13 / Fold change vs veh, DNAJC13 / RFU, GNAQ / Fold change vs veh, GNAQ / RFU, CDK5R1 / Fold change vs veh, CDK5R1 / RFU, ZRANB3 / Fold change vs veh, ZRANB3 / RFU, CUL4A / Fold change vs veh, CUL4A / RFU, CCNY / Fold change vs veh, CCNY / RFU, UFL1 / Fold change vs veh, UFL1 / RFU, COG3 / Fold change vs veh, COG3 / RFU, DIAPH2 / Fold change vs veh, DIAPH2 / RFU, SKA2 / Fold change vs veh, SKA2 / RFU, AFF3 / Fold change vs veh, AFF3 / RFU, LMF1 / Fold change vs veh, LMF1 / RFU, IPO11 / Fold change vs veh, IPO11 / RFU, DFFB / Fold change vs veh, DFFB / RFU, FOXP1 / Fold change vs veh, FOXP1 / RFU, CARD8 / Fold change vs veh, CARD8 / RFU, STRN3 / Fold change vs veh, STRN3 / RFU, ADK / Fold change vs veh, ADK / RFU, RASSF2 / Fold change vs veh, RASSF2 / RFU, WIPF1 / Fold change vs veh, WIPF1 / RFU, LARP1B / Fold change vs veh, LARP1B / RFU, RASA1 / Fold change vs veh, RASA1 / RFU, RB1 / Fold change vs veh, RB1 / RFU, PPFIA1 / Fold change vs veh, PPFIA1 / RFU, MAT2A / Fold change vs veh, MAT2A / RFU, CCT5 / Fold change vs veh, CCT5 / RFU, WDR92 / Fold change vs veh, WDR92 / RFU, CUX1 / Fold change vs veh, CUX1 / RFU, TTC7A / Fold change vs veh, TTC7A / RFU, TMEM135 / Fold change vs veh, TMEM135 / RFU, DEPTOR / Fold change vs veh, DEPTOR / RFU, CPM / Fold change vs veh, CPM / RFU, DNAJB6 / Fold change vs veh, DNAJB6 / RFU, CACNA2D3 / Fold change vs veh, CACNA2D3 / RFU, DTX4 / Fold change vs veh, DTX4 / RFU, TFCP2 / Fold change vs veh, TFCP2 / RFU, GMCL1 /// GMCL1P1 / Fold change vs veh, GMCL1 /// GMCL1P1 / RFU, AEBP2 / Fold change vs veh, AEBP2 / RFU, SNHG1 /// SNORD22 /// SNORD25 /// SNORD26 /// SNORD27 /// SNORD28 /// SNORD29 /// SNORD31 / Fold change vs veh, SNHG1 /// SNORD22 /// SNORD25 /// SNORD26 /// SNORD27 /// SNORD28 /// SNORD29 /// SNORD31 / Fold change (Aza/veh), C12orf56 (ProbeSet 11735607_a_at) / Fold change (ACY-1035/veh), C12orf56 (ProbeSet 11735607_a_at) / Fold change (Aza/veh), FGFR1OP (ProbeSet 11751329_s_at) / Fold change (ACY-1035/veh), FGFR1OP (ProbeSet 11751329_s_at) / Fold change (Aza/veh), VPS36 (ProbeSet 11739960_a_at) / Fold change (ACY-1035/veh), VPS36 (ProbeSet 11739960_a_at) / RFU SYPL1 (11715823_x_at) / Fold change /veh SYPL1 (11715823_x_at) / RFU IGFBP7 (11715501_s_at) / Fold change /veh IGFBP7 (11715501_s_at) / RFU REEP3 (11722064_at) / Fold change /veh REEP3 (11722064_at) / RFU IGLL1 (11728026_x_at) / Fold change /veh IGLL1 (11728026_x_at): dose or concentration left out as unconfirmed
Conditions: MV-4-11 cells, 48 hours

With `Nc1ccc(-c2cccs2)cc1NC(=O)c1ccc2c(c1)cc(C1CC1)n2CCN1CCOCC1` [ACY-1035] the “Fold change /veh C5orf56 (11738088_a_at)” value was 0.99.
